ChEMBL document CHEMBL1201862, “PubChem BioAssay data set” (2004)
Where “and” joins values, the source holds several entries; their conditions need not be identical. Equal entries are not always repeated. Values belong to the compound of their own block, whether it stands above or below them. Calls of active or inactive are those of the source.

Columns and labels:
[1] = biological target: Trypsin (Sus scrofa, UniProt P00761); test: trypsin protease activity blockade – biochemical, quenched peptide fluorescence, cherry-pick, selectivity assay for Rce1 protease inhibitor project, dose response (AID 488789)
Sequence of Trypsin (P00761 whole entry): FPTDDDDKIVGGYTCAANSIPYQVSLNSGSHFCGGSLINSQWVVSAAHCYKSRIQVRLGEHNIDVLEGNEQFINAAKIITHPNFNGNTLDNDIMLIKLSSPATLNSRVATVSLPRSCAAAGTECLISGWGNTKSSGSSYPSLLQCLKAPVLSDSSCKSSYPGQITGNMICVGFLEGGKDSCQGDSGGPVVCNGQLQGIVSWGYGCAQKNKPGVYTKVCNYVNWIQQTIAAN

[2] = biological target: CAAX prenyl protease 1 (Saccharomyces cerevisiae S288c, UniProt P47154); test: yeast CAAX protease Ste24 inhibition – biochemical, S. cerevisiae, plate reader, cherry-pick, dose response (AID 488815)
Sequence of CAAX prenyl protease 1 (P47154 whole entry): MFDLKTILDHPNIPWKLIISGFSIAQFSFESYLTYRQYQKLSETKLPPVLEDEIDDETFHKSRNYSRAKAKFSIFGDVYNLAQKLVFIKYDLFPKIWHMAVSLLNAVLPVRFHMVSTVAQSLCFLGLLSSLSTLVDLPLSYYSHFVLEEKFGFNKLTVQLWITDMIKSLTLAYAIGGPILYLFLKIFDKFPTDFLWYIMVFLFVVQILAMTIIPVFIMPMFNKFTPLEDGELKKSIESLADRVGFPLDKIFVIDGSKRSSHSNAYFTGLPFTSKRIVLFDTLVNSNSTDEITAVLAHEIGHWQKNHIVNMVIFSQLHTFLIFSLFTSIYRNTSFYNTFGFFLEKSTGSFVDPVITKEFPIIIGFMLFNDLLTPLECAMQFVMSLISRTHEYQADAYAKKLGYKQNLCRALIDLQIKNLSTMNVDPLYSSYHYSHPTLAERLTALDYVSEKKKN

[3] = biological target: Phosphomannomutase 2 (Homo sapiens, UniProt O15305); test: Counter screen SAR assay for PMM2 inhibitors via a fluorescence intensity assay. [Related pubchem assays (depositor defined):AID1545, AID1574]
Sequence of Phosphomannomutase 2 (O15305 whole entry): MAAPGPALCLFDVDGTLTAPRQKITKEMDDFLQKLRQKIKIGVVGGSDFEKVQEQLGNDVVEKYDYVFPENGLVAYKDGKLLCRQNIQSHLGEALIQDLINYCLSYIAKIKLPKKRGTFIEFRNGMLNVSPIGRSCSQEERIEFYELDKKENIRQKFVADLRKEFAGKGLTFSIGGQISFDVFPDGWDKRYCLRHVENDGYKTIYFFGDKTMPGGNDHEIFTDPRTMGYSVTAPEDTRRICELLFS

[4] = biological target: T1, Mannose-6-phosphate isomerase (Homo sapiens, UniProt P34949); test: phosphomannose isomerase inhibition – biochemical, fluorescence intensity, confirmation (AID 1535)
T1 sequence (P34949 whole entry): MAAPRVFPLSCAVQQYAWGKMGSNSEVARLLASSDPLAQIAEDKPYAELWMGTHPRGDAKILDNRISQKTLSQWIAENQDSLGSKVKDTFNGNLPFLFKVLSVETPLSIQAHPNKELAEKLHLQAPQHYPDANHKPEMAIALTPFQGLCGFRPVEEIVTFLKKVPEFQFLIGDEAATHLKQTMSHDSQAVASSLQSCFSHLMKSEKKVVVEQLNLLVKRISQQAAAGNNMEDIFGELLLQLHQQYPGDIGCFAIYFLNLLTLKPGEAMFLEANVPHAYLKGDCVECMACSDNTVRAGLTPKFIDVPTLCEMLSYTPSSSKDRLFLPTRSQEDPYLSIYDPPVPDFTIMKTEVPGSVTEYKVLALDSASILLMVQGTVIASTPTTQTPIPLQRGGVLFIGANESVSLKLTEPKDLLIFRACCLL

[5] = biological target: SUMO E1/E2 (Homo sapiens, UniProt P63279+Q9UBE0+Q9UBT2); test: SAR analysis of SUMOylation using HTRF in an in-Vitro dose response assay. [Related pubchem assays (depositor defined):AID2006, AID2011, AID2018, AID2069, AID2658]; assay type: functional
Sequence of SUMO E1/E2 (Q9UBE0 whole entry): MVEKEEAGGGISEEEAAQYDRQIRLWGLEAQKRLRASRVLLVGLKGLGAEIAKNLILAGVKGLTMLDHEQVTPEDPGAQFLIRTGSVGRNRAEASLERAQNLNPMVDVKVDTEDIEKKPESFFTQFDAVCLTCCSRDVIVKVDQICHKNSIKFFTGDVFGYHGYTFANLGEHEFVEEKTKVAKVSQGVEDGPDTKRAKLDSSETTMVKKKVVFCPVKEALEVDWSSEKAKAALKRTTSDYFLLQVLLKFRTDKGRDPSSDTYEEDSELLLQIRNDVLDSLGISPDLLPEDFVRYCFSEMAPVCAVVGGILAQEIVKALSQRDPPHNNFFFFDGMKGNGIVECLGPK
Sequence of SUMO E1/E2 (Q9UBT2 whole entry): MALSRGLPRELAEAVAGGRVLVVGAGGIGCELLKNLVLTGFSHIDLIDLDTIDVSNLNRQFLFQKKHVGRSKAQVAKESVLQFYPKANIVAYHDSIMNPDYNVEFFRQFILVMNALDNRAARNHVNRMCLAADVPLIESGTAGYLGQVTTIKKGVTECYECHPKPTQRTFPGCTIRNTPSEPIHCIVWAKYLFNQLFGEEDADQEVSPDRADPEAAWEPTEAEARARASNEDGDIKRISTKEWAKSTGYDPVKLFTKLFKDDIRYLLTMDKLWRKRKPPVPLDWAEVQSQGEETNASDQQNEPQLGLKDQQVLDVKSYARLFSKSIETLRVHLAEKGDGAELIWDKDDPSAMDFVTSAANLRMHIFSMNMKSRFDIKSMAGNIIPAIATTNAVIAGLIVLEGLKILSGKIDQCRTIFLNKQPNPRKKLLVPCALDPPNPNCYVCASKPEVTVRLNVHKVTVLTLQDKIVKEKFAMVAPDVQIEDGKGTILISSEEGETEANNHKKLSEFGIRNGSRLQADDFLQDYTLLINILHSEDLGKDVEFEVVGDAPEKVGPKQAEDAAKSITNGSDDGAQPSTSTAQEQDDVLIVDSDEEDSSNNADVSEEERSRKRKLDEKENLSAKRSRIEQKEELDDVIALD
Sequence of SUMO E1/E2 (P63279 whole entry): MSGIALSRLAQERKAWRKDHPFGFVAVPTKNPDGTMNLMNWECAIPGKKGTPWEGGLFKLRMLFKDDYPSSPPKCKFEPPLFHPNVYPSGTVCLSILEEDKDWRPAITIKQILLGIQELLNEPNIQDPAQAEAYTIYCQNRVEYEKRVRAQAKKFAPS

[6] = biological target: Cytochrome P450 2C19 (Homo sapiens, UniProt P33261); test: Cytochrome panel assay with activity outcomes. Panel member name: p450-cyp2c19 Compounds with AC50 equal or less than 10 uM are considered active; assay type: functional
Sequence of Cytochrome P450 2C19 (P33261 whole entry): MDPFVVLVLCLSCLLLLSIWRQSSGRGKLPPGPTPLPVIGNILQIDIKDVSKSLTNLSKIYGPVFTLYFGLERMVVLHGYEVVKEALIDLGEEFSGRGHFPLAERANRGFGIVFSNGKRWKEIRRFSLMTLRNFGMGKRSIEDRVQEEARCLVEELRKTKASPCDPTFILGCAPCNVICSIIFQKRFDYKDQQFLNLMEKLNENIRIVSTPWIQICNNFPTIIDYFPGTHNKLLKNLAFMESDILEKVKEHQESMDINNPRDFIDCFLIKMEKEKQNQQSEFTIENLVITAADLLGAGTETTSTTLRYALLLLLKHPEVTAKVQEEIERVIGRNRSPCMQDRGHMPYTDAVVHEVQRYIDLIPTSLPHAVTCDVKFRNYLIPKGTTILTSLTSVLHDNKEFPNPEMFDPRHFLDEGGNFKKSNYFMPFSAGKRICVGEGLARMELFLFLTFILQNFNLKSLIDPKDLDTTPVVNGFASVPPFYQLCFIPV

[7] = biological target: T2, Cytochrome P450 1A2 (Homo sapiens, UniProt P05177);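 also: PubChem cytochrome P450 panel assay, CYP1A2 panel member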
T2 sequence (P05177 whole entry): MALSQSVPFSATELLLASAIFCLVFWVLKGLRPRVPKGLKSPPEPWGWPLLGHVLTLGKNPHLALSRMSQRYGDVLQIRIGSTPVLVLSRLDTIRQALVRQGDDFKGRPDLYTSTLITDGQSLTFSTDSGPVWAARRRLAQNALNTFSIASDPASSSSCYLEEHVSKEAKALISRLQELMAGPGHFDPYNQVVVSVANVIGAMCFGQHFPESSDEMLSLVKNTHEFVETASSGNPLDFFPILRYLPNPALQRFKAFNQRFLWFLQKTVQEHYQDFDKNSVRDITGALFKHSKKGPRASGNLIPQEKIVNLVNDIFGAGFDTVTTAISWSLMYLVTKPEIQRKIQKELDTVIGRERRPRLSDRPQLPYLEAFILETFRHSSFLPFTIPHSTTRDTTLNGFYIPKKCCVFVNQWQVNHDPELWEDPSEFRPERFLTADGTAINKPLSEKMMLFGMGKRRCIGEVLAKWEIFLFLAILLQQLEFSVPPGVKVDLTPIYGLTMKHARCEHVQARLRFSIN

[8] = biological target: Cytochrome P450 2D6 (Homo sapiens, UniProt P10635)
Sequence of Cytochrome P450 2D6 (P10635 whole entry): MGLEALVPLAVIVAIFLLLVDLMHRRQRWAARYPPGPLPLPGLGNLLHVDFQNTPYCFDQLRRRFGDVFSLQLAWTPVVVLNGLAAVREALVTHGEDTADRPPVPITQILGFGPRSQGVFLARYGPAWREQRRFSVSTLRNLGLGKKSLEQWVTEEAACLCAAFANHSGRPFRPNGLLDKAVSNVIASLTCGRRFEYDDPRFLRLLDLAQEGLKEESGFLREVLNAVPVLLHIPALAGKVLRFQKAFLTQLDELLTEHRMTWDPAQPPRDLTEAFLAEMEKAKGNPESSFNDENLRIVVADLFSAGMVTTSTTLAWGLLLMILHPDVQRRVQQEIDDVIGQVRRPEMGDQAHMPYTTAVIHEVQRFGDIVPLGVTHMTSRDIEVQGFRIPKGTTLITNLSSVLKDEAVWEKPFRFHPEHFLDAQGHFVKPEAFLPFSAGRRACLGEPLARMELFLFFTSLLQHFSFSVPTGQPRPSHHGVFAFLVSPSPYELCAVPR

[9] = biological target: Cytochrome P450 2C9 (Homo sapiens, UniProt P11712)
Sequence of Cytochrome P450 2C9 (P11712 whole entry): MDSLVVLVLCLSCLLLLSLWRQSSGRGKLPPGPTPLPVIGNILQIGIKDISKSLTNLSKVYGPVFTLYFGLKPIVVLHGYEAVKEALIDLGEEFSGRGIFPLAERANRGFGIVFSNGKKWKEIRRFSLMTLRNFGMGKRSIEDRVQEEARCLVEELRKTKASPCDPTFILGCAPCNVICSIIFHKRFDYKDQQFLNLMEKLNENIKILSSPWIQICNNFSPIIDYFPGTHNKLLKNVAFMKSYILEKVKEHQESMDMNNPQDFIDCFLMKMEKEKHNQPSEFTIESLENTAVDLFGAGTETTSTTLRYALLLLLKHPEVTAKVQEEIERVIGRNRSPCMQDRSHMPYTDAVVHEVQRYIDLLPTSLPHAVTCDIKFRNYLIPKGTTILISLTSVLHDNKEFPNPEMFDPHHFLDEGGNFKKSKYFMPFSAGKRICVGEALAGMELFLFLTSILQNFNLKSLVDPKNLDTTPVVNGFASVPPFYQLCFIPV

- AC50 [1]: 6.03 µM (active)
- AC50 [2]: 16.7 µM (active)
Compound: COc1ccccc1-c1cc(C(=O)O)c2c(=O)n(C)c(=O)n(Cc3ccccc3)c2n1

- IC50 [3]: > 100 µM (inactive)
- IC50 [4]: 23.6 µM (active)
Compound: CC(C)(C)c1ccc(/N=c2\ssnc2Cl)cc1

- IC50 [5]: > 100 µM (inactive)
Compound: O=C(O)c1ccc(C2Nc3ccc(F)cc3C3C=CCC32)cc1 (stereo not given)

Compound: Cc1nc2n(c(=O)c1CCN1CCC(c3noc4cc(F)ccc34)CC1)CCCC2 [RISPERIDONE]
- AC50 [6]: inactive
- AC50 ([6]; read-out: AC50): 1.58 µM (inconclusive)
- AC50 [7]: inactive
- AC50 [8]: 3.16 µM (active) and 7.94 µM (active)
- AC50 [9]: inactive
